Measurements from EP0515159A1, “Ursane derivatives, their preparation and pharmaceutical formulations thereof” (IDB HOLDING S.p.A., priority 1991, dated 1992).
Where a name gives a salt, the structure may show the parent alone. Read-outs that look alike come from different tables or passages of the source.

Experiments:
[1] = tested on: alcohol-induced gastric lesions; assay: Alcohol-induced ulcer (gastric lesions) in the rat; format: in vivo; details: for inhibition at 6.25 mg/kg: dose 6.25 mg/kg os; for inhibition at 12.5 mg/kg: dose 12.5 mg/kg os; for ED50: by mouth, inhibition of alcohol-induced gastric lesions, read-out: ED₅₀ mg/kg and confidence limits (p = 0.95); for ED50 / oral therapeutic indices (LD₅₀/ED₅₀) Alcohol-induced ulcer: rat; for oral therapeutic indices (LD₅₀/ED₅₀) Alcohol-induced ulcer: oral LD50 / ED50 in alcohol-induced ulcer; for R: potency ratio relative to Carbenoxolone (= 1.0), alcohol-induced lesions; for inhibition at 50 mg/kg: dose 50.0 mg/kg os; for inhibition at 100 mg/kg: dose 100.0 mg/kg os; for inhibition at 200 mg/kg: dose 200.0 mg/kg os
Method: The gastric lesions were induced in male Sprague-Dawley rats weighing 120-140 g, which had been fasted for 48 h, by administering 1 ml/rat of 90% alcohol by mouth. One hour after administration of the damage-inducing agent, the animals were sacrifed in an excess of ether and the stomachs opened along the major curvature; the gastric lesions were measured in mm² and expressed as the percentage of inhibition compared with the controls. The substances under investigation, suspended in 0.5% Methocel, were administered by mouth 1 hour before the alcohol.

[2] = tested on: Diclofenac-induced gastric ulcers; assay: Diclofenac-induced ulcer (gastric lesions) in the rat; format: in vivo; details: for ED50: by mouth, inhibition of Diclofenac-induced gastric lesions, read-out: ED₅₀ and confidence limits (p = 0.95); for ED50 / oral therapeutic indices (LD₅₀/ED₅₀) Diclofenac-induced ulcer: rat; for % Inhibition: 1 h before 100 mg/kg Diclofenac, sacrifice 5 h after; for oral therapeutic indices (LD₅₀/ED₅₀) Diclofenac-induced ulcer: oral LD50 / ED50 in Diclofenac-induced ulcer; for R: potency ratio relative to Carbenoxolone (= 1.0), Diclofenac-induced ulcers
Method: Female Sprague-Dawley rats weighing 180-200 g that had been fasted for 24 h were used in this experiment. The gastric lesions were induced by a single oral dose of 100 mg/kg Diclofenac.
The animals were sacrificed 5 h after administration of the damage-inducing agent. The gastric lesions were measured in mm² and expressed as a percentage of inhibition.
The substances under investigation, suspended in 0.5% Methocel, were administered by mouth 1 h before the anti-inflammatory agent.

[3] = Antidiuretic activity: effects on urinary excretion in the rat; format: in vivo; details: for Electrolyte output, mEq/6h/rat K^+ / Electrolyte output, mEq/6h/rat Na^+ / Na^+/K^+ / Urine volume (0-6 h): urine collected 6 hours after fifth dose
Method: The effect of compounds IIa and IIb (M=Na) on urinary excretion was investigated in male Sprague-Dawley rats weighing 180-200 g. […] Carbenoxolone in a dose of 200 mg/kg was used as a reference substance. The animals were fasted for 18 h before the last dose. The urine was collected for 6 hours after administration of the fifth dose and its content of Na⁺ and K⁺ was measured.

[4] = Acute toxicity in the rat; details: in vivo; for LD50 at 336 h: 14 days observation; for LD50 at 14 days: both sexes, Sprague-Dawley
Method: The acute toxicity of compounds IIa and IIb (M=Na) was evaluated in the rat after oral and intraperitoneal administration.
Each experimental group comprised 5 male and 5 female Sprague-Dawley rats. After being treated, the animals were kept under observation for 14 days and the dose that caused the death of 50% of the animals (LD₅₀) was calculated by the probit method (Finney D J. in "Probit Analysis", Cambridge University Press, 3rd Ed., Cambridge, 1971). The results shown in Table 4 indicate that, after intraperitoneal administration, the toxicity of both compounds is similar to that of the reference product.

[5] = Rattus norvegicus, 1 hour before 90% alcohol, lesions in mm² vs controls
[6] = 20 mg/kg os once a day for 5 days
[7] = ip, intraperitoneal, probit method, read-out: LD50 (confidence limits p = 0.95) mg/kg i.p
[8] = oral, 1000 mg/kg (LD10) = maximum dose that could be administered (2 doses of 500 mg/kg 1 h apart), read-out: LD50 (confidence limits p = 0.95) mg/kg p.o
[9] = 200 mg/kg os once a day for 5 days

Compound	inhibition at 6.25 mg/kg [1, 5]	inhibition at 12.5 mg/kg [1, 5]	ED50 [1]	oral therapeutic indices (LD₅₀/ED₅₀) Alcohol-induced ulcer [1]	R [1]	ED50 [2]	% Inhibition ([2]; dose 3.125 mg/kg os)	% Inhibition ([2]; dose 6.25 mg/kg os)	% Inhibition ([2]; dose 12.5 mg/kg os)	% Inhibition ([2]; dose 25.0 mg/kg os)	oral therapeutic indices (LD₅₀/ED₅₀) Diclofenac-induced ulcer [2]	R [2]	Electrolyte output, mEq/6h/rat K^+ [3, 6]	Electrolyte output, mEq/6h/rat Na^+ [3, 6]	Na^+/K^+ [3, 6]	Urine volume (0-6 h) [3, 6]	LD50 at 336 h [4, 7]	LD50 at 336 h [4, 8]	inhibition at 50 mg/kg [1, 5]	inhibition at 100 mg/kg [1, 5]	other results
C[C@H]1[C@H](C)CC[C@]2(COC(=O)c3ccccc3C(=O)O)CC[C@]3(C)C(=CC=C4[C@@]5(C)CC[C@H](OC(=O)c6ccccc6C(=O)O)C(C)(C)[C@@H]5CC[C@]43C)[C@H]12 [IIb (M = Na), disodium salt of the dihemiphthalate of ursa-9(11),12-diene-3β,28-diol]	10.7%	32.5%	16.8 mg/kg	> 60	5.5	6.4 mg/kg	37.4%	43.3%	72.0%	73.3%	> 156	17.8	0.13±0.02 mEq/6h/rat	0.19±0.02 mEq/6h/rat	1.5	2.8 ± 0.3 mL	75 mg/kg	> 1000 mg/kg	–	–	inhibition at 16 mg/kg ([1]; Rattus norvegicus, dose 16.0 mg/kg os, 1 hour before 90% alcohol, lesions in mm² vs controls): 38.2%; inhibition at 25 mg/kg ([1]; Rattus norvegicus, dose 25.0 mg/kg os, 1 hour before 90% alcohol, lesions in mm² vs controls): 76.6%
CC1(C)[C@@H](OC(=O)CCC(=O)O)CC[C@]2(C)[C@H]3C(=O)C=C4[C@@H]5C[C@@](C)(C(=O)O)CC[C@]5(C)CC[C@@]4(C)[C@]3(C)CC[C@@H]12 [Carbenoxolone, sodium salt of the hemisuccinate of β-glycyrrhetic acid]	–	–	90.4 mg/kg	34	1.0	140 mg/kg	–	–	–	–	22	1.0	–	–	–	–	–	–	34.9%	45%	inhibition at 200 mg/kg [1, 5]: 83%; % Inhibition ([2]; dose 100.0 mg/kg os): 37.2%; % Inhibition ([2]; dose 150.0 mg/kg os): 45.6%; % Inhibition ([2]; dose 200.0 mg/kg os): 72.7%; % Inhibition ([2]; dose 400.0 mg/kg os): 90.9%; Electrolyte output, mEq/6h/rat K^+ [3, 9]: 0.12±0.01 mEq/6h/rat; Electrolyte output, mEq/6h/rat Na^+ [3, 9]: 0.10±0.01 mEq/6h/rat; Na^+/K^+ [3, 9]: 0.8; Urine volume (0-6 h) [3, 9]: 1.5 ± 0.2 mL; Na^+/K^+ ([3]; 200 mg/kg os once a day for 5 days, listed as carbenoxolone): 0.5; reducing diuresis ([3]; 200 mg/kg, versus controls): 67%; reduction in the excretion of Na⁺ ([3]; 200 mg/kg, versus controls): 72%; LD50 at 14 days ([4]; ip): 92 mg/kg; LD50 at 14 days ([4]; po): 3100 mg/kg
CC1(C)[C@@H](OC(=O)c2ccccc2C(=O)O)CC[C@]2(C)[C@H]3CC=C4[C@@H]5C[C@@](C)(COC(=O)c6ccccc6C(=O)O)CC[C@]5(C)CC[C@@]4(C)[C@]3(C)CC[C@@H]12 [18β-olean-12-ene-3β,3-0-diol di-0-hemiphthalate]	–	40.8%	14.6 mg/kg	–	5.6	38.9 mg/kg	1.5%	5.9%	21.5%	29.8%	–	3.5	–	–	–	–	–	–	70.2%	–	inhibition at 0.8 mg/kg ([1]; Rattus norvegicus, dose 0.8 mg/kg os, 1 hour before 90% alcohol, lesions in mm² vs controls): 12%; inhibition at 3.12 mg/kg ([1]; Rattus norvegicus, dose 3.12 mg/kg os, 1 hour before 90% alcohol, lesions in mm² vs controls): 32%
C[C@H]1[C@H](C)CC[C@]2(COC(=O)c3ccccc3C(=O)O)CC[C@]3(C)C(=CC[C@@H]4[C@@]5(C)CC[C@H](OC(=O)c6ccccc6C(=O)O)C(C)(C)[C@@H]5CC[C@]43C)[C@H]12 [IIa (M = Na), disodium salt of the dihemiphthalate or urs-12-ene-3β,28-diol]	67.4%	–	3.7 mg/kg	> 270	25.6	7 mg/kg	8.9%	28.3%	–	–	> 143	16.3	0.14±0.01 mEq/6h/rat	0.21±0.01 mEq/6h/rat	1.5	3.0 ± 0.2 mL	60 mg/kg	> 1000 mg/kg	–	–	inhibition at 2 mg/kg ([1]; Rattus norvegicus, dose 2.0 mg/kg os, 1 hour before 90% alcohol, lesions in mm² vs controls): 16.1%; inhibition at 2.5 mg/kg ([1]; Rattus norvegicus, dose 2.5 mg/kg os, 1 hour before 90% alcohol, lesions in mm² vs controls): 22.1%; inhibition at 3.125 mg/kg ([1]; Rattus norvegicus, dose 3.125 mg/kg os, 1 hour before 90% alcohol, lesions in mm² vs controls): 65.2%; % Inhibition ([2]; dose 7.5 mg/kg os): 62.3%; % Inhibition ([2]; dose 9.0 mg/kg os): 67.9%
C[C@H]1[C@H](C)CC[C@]2(C(=O)O)CC[C@]3(C)C(=CC=C4[C@@]5(C)CC[C@H](OC(=O)CCC(=O)O)C(C)(C)[C@@H]5CC[C@]43C)[C@H]12 [3β-(carboxy-propionyloxy)-ursa-9(11),12-dien-28-oic acid]	–	–	106 mg/kg	–	0.8	–	–	–	–	–	–	–	–	–	–	–	–	–	28.4%	45.6%	inhibition at 200 mg/kg [1, 5]: 76.3%; inhibition at 400 mg/kg ([1]; Rattus norvegicus, dose 400.0 mg/kg os, 1 hour before 90% alcohol, lesions in mm² vs controls): 80.1%
